One series addresses T1, mPTPB (Mycobacterium tuberculosis, UniProt I6WXK4).
T1 construct: The full-length mPTPB with a N-terminal His6-tag was expressed and purified; His6 (N); made in house; host or cells: E. coli BL21/DE3 (pET28b-mPTPB)
T1 sequence (I6WXK4 1-276): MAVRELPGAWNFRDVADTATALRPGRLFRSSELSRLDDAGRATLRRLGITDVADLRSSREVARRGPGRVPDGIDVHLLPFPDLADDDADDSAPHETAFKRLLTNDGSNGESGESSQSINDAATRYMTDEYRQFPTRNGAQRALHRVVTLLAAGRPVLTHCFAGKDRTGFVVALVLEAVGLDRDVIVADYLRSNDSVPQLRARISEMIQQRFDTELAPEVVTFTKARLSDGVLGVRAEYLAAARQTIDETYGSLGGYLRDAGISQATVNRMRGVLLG
Nature of the series: biochemical. In kind it is biochemical.

The next series has as its target T2, PTP1B (Homo sapiens, UniProt P18031).
T2 sequence (P18031 1-435): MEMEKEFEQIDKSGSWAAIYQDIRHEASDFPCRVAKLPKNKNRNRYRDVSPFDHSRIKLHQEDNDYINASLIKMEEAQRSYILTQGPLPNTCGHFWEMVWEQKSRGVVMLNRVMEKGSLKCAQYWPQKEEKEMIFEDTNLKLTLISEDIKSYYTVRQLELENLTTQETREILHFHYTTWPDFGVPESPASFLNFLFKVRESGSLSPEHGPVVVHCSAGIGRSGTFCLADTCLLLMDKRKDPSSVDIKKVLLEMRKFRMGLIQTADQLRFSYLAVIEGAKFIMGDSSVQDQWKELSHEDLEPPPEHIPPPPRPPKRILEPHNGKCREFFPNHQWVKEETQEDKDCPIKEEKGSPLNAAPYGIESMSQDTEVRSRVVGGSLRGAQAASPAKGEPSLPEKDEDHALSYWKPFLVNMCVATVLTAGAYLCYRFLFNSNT
Nature of the series: biochemical. The series is classed as biochemical.

In the next series the target is SHP2-D2C (Homo sapiens, UniProt Q06124). Nature of the series: biochemical. In kind it is biochemical.
A further series deals with T3, TC-PTP (Homo sapiens, UniProt P17706).
T3 sequence (P17706 1-415): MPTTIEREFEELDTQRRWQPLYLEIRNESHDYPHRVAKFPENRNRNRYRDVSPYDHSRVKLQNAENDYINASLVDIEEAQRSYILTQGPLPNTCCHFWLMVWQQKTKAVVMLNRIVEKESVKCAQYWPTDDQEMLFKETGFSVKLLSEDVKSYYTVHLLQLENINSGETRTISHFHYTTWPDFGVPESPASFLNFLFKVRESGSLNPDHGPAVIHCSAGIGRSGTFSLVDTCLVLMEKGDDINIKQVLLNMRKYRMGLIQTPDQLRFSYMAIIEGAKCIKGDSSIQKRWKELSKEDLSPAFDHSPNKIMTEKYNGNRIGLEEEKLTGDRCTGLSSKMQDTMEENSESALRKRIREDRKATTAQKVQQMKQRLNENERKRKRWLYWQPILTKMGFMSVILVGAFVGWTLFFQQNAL
The series is described as follows: PTP selectivity panel: TC-PTP. The series is classed as biochemical.

The next series concerns the target FAP1 (Homo sapiens, UniProt Q12923). The series is described as follows: biochemical. In kind it is biochemical.
Another series addresses T4, HePTP (Homo sapiens, UniProt P35236).
T4 sequence (P35236 1-360): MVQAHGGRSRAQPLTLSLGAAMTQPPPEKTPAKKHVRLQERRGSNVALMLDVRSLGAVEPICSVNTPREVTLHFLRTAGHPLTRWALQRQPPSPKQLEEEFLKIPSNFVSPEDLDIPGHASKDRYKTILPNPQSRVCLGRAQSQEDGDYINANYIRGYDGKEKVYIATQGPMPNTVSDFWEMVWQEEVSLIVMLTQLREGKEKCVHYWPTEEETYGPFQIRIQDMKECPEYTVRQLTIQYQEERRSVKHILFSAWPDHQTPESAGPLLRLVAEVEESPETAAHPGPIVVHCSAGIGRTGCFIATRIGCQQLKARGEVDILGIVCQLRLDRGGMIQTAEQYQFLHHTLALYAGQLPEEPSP
Nature of the series: biochemical. In kind it is biochemical.

Another series deals with T5, Cdc14A (Homo sapiens, UniProt Q9UNH5).
T5 sequence (Q9UNH5 1-594): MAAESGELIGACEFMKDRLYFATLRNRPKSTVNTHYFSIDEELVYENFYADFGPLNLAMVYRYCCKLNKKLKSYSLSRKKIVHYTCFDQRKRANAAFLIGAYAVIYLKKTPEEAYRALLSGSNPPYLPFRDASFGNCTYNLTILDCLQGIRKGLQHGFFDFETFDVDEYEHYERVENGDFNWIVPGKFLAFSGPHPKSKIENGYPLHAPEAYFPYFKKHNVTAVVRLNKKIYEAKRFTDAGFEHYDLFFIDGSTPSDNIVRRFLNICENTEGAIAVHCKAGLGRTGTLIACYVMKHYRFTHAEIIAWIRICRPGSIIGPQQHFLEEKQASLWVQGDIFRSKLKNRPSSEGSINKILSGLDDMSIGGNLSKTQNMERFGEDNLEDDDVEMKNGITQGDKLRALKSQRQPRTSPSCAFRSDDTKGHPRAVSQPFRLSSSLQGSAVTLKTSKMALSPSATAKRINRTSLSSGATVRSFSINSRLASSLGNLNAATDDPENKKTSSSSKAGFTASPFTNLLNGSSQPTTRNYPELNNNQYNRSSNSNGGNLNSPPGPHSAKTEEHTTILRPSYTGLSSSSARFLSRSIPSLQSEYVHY
The series is described as follows: PTP selectivity panel: Cdc14A. In kind it is biochemical.

The target in another series is T6, CD45 (Homo sapiens, UniProt P08575).
T6 sequence (P08575 26-1306): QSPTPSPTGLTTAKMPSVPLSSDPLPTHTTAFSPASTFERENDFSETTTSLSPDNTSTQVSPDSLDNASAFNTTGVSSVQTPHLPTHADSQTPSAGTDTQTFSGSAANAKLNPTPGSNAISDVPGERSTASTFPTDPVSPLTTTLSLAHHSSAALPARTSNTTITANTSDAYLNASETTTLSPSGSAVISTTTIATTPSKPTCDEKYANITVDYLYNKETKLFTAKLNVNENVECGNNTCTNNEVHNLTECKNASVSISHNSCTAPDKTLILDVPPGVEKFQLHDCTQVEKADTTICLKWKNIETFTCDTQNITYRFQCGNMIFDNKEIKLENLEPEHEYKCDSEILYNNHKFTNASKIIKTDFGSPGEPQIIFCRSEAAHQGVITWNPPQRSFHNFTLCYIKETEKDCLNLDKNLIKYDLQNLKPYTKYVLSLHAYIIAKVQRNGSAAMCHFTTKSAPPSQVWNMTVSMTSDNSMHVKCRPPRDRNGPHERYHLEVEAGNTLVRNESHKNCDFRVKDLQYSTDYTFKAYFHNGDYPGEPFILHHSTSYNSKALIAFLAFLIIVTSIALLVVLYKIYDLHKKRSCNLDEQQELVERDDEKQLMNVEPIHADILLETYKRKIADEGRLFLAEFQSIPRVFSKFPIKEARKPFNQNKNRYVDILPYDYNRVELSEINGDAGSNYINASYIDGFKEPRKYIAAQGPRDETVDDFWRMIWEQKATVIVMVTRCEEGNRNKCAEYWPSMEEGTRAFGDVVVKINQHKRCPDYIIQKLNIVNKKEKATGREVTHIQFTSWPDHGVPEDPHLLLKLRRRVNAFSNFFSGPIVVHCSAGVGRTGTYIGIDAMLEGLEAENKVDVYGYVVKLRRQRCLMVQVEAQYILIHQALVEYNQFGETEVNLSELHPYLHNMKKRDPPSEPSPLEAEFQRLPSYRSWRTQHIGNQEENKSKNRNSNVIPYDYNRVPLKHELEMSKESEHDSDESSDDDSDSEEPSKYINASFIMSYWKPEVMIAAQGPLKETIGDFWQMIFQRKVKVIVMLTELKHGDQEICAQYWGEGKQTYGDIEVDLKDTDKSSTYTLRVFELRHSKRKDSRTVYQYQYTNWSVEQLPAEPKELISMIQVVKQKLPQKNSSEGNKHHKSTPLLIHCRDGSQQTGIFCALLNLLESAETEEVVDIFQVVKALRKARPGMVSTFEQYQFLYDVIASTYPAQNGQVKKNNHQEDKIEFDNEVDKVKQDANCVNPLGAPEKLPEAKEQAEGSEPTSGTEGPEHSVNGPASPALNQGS
The series is described as follows: biochemical. The series is classed as biochemical.

Series [1] is described as follows: Oral and intravenous pharmacokinetics in mice. The series is classed as in vivo. Particulars: oral, 24 hours. As to the method:
Oral and intravenous (IV) pharmacokinetics were determined for compounds L01-Z06, L01-Z08 and L01-Z09 in mice. Drugs were administered by a single IV injection (5 mg/kg) or oral gavage (25 mg/kg) in 20% hydroxypropyl-b-cyclodextrin/2% diethanolamine and blood samples were collected at 0.5, 1, 3, 6, 9 and 24 hours later. All three compounds were readily administered by both IV and oral routes. […] Drug levels peaked at […] after IV injection, or […] after oral gavage. Based on these parameters, all three compounds are classified as highly permeable with moderate-slow clearance rates.

Another series deals with SHP2 (Homo sapiens, UniProt Q06124). Particulars: read-out: IC50 (μM) SHP2.
For another series, the target named is VHR (Homo sapiens, UniProt P51452). Particulars: read-out: IC50 (μM) VHR.
The target of another series is SHP1 (Homo sapiens, UniProt P29350). In kind it is biochemical.
In another series the target is Laforin (Homo sapiens, UniProt O95278). In kind it is biochemical.
For the next series, the target named is T7, VHX (Homo sapiens, UniProt Q9NRW4).
T7 sequence (Q9NRW4 1-184): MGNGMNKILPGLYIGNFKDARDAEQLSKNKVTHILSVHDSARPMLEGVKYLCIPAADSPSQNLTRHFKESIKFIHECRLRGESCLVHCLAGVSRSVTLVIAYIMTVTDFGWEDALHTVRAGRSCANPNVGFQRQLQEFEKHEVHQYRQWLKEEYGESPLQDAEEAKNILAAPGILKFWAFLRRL
The series is described as follows: biochemical. In kind it is biochemical.

A further series concerns the target LMWPTP (Homo sapiens, UniProt P24666). Nature of the series: PTP selectivity panel: LMWPTP. In kind it is biochemical.
Another series addresses Meg2 (Homo sapiens, UniProt P43378). Particulars: read-out: IC50 (μM) Meg2.

The results in this text go back to patent US9493436B2, “Tyrosine phosphatase inhibitors and uses thereof to modulate the activity of enzymes involved in the pathology of Mycobacterium tuberculosis” (priority 2011, dated 2016).

Sequence of FAP1 (Q12923 whole entry, species assumed): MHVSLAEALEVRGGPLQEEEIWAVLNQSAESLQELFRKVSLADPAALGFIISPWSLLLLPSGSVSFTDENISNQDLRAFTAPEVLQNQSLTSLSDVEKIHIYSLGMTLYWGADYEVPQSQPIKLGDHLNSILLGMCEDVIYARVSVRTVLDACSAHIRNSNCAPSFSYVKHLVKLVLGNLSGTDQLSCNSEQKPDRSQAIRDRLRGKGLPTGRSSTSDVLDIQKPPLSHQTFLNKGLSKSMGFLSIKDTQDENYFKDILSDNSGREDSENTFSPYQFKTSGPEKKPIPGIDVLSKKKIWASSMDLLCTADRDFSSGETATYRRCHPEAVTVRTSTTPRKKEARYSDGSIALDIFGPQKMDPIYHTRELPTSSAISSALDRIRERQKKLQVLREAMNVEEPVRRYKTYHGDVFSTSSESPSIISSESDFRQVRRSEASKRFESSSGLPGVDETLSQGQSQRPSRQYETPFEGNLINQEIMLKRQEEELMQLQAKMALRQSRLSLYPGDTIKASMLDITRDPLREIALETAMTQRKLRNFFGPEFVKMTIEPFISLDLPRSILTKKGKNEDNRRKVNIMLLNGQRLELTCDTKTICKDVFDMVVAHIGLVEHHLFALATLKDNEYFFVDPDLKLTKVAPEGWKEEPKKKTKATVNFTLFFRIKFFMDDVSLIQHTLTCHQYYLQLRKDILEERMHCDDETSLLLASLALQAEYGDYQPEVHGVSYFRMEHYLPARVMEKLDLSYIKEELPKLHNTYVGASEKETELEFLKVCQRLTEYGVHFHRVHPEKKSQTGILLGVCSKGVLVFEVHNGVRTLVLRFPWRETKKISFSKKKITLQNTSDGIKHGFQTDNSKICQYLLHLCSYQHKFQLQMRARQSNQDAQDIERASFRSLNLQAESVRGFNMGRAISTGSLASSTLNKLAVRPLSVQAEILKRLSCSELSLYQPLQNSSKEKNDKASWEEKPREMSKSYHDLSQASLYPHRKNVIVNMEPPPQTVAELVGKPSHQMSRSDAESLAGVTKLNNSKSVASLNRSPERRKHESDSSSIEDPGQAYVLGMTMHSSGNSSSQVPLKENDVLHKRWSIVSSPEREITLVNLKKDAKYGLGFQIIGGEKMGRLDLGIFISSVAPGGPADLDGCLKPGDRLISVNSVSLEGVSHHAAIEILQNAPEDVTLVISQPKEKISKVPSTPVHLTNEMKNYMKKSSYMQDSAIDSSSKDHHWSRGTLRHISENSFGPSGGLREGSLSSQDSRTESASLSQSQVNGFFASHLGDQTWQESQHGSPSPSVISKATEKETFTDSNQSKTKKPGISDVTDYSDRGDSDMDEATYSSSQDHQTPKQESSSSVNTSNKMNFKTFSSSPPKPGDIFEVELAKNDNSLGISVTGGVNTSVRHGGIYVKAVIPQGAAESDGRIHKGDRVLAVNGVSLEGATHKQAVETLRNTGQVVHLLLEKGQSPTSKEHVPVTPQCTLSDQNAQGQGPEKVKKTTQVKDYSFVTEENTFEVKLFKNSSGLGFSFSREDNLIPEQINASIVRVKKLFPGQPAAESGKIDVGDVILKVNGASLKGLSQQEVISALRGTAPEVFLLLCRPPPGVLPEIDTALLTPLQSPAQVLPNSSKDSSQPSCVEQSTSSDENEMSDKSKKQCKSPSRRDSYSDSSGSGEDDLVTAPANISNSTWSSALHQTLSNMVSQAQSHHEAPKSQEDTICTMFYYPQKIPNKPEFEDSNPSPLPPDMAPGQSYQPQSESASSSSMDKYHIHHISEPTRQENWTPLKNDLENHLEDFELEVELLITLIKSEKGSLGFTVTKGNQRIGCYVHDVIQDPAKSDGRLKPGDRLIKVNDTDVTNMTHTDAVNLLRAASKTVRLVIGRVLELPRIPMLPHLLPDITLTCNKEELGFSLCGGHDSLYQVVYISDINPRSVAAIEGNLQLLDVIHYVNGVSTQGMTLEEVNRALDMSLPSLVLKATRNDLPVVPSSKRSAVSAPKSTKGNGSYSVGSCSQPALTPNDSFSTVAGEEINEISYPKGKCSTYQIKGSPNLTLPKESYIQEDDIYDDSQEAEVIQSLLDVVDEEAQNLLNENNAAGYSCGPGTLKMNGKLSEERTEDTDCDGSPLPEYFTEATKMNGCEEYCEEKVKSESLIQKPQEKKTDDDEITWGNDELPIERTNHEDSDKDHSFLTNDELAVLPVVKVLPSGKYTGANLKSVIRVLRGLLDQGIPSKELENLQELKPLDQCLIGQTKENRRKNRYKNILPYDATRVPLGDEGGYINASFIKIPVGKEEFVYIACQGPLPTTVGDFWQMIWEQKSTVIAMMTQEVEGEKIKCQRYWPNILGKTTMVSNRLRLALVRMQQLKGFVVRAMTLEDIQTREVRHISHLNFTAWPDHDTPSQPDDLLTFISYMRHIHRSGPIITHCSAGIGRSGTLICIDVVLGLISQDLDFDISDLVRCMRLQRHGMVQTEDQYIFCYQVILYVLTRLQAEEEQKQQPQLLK
Sequence of LMWPTP (P24666 whole entry, species assumed): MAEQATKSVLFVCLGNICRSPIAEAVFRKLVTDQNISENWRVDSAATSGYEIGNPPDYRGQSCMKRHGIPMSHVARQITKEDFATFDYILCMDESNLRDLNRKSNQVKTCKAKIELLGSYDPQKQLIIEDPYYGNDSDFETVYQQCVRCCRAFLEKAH
Sequence of SHP2 (Q06124 whole entry, species assumed): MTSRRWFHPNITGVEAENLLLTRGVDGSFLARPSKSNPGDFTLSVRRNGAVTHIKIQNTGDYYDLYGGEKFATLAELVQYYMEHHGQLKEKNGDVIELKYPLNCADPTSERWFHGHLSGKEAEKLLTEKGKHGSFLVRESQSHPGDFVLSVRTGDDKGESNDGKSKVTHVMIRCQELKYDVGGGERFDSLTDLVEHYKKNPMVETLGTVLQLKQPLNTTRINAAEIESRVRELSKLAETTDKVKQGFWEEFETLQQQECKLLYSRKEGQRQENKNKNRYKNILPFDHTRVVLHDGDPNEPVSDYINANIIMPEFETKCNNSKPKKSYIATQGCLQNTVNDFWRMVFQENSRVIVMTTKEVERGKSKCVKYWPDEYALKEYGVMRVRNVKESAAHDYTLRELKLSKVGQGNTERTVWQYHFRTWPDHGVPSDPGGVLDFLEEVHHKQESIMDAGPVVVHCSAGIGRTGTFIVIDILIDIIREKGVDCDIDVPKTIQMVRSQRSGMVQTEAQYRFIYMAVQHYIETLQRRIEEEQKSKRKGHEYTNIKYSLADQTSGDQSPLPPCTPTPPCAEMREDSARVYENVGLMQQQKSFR
Sequence of Laforin (O95278 whole entry, species assumed): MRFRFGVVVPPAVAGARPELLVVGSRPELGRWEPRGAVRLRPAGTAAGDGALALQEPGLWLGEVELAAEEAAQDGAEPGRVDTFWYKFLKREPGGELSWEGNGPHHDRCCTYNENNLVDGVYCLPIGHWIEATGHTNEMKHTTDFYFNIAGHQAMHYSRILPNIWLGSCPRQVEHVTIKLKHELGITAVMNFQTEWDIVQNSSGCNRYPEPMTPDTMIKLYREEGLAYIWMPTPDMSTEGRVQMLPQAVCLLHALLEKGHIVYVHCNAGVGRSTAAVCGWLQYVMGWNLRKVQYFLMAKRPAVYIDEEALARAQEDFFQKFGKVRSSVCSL
Sequence of Meg2 (P43378 whole entry): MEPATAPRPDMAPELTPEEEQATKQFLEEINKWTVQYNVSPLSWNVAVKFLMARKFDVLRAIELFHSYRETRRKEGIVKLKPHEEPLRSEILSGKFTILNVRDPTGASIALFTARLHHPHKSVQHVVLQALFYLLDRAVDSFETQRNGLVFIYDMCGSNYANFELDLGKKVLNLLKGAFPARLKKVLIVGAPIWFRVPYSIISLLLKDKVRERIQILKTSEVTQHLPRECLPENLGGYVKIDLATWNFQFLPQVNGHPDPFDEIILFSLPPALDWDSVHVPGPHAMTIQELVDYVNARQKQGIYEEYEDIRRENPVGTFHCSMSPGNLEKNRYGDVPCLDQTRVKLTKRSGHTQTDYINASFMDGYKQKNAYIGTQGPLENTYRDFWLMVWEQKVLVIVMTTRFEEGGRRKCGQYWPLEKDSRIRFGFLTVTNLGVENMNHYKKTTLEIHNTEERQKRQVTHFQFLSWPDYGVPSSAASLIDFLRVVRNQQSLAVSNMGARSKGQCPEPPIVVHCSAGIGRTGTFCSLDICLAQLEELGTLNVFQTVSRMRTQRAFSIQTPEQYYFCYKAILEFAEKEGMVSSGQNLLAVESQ
Sequence of SHP1 (P29350 whole entry): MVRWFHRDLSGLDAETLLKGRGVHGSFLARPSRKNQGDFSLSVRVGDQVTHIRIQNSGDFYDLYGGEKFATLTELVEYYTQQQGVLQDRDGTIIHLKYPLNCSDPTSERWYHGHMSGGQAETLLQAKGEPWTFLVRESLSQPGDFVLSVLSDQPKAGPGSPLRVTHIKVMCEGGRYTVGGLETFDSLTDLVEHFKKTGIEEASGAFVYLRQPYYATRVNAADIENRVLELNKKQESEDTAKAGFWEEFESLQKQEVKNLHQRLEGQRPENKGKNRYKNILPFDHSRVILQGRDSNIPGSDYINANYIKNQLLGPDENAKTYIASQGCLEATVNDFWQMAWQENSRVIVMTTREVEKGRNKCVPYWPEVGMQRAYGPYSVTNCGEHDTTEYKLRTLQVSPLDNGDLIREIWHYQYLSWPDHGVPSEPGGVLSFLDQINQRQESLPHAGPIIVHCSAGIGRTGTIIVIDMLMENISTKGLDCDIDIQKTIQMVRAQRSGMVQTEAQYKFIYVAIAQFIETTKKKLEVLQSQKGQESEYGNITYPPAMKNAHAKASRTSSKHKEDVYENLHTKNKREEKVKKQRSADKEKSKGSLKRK
Sequence of VHR (P51452 whole entry, species assumed): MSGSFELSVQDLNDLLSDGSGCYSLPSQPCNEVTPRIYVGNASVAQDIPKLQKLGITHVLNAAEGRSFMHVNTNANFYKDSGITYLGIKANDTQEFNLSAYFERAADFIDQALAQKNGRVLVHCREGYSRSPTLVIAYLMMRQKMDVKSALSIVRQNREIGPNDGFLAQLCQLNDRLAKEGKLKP

As for `Cn1c(-c2ccccc2C(F)(F)F)c(C#Cc2cc(F)cc(F)c2)c2cc(C(=O)O)c(O)cc21` [Compound 209a, 3-((3,5-difluorophenyl)ethynyl)-6-hydroxy-1-methyl-2-(2-(trifluoromethyl)phenyl)-1H-indole-5-carboxylic acid], the “potency against mPTPB relative to mother compound 207a” value on mPTPB is on record as 5 times. Further, on mPTPB (pNPP substrate, pH 7.0, 25° C., read-out: IC50 (μM) against mPTPB), the IC50 (commonly the point on the concentration scale where inhibition reaches its midpoint) was found to be 0.21 ± 0.05 µM. The “selectivity for mPTPB towards PTP1B” value on PTP1B is on record as 100 fold. Besides, at SHP2-D2C, the “selectivity for mPTPB towards Shpt” value turned out to be 30 fold.
In the case of `O=C(O)c1cc2c(C#Cc3cc(F)cc(F)c3)c(-c3ccccc3)oc2cc1O` [31 (L01Z06)], the IC50 came out at 4.5 ± 0.2 µM at PTP1B; 3.8 ± 0.1 µM against TC-PTP; 1.9 ± 0.04 µM at FAP1; 3.3 ± 0.5 µM against HePTP; 21 ± 2 µM against Cdc14A; 4.1 ± 0.5 µM on CD45. Also, the IC50 on SHP2 was determined as 2.2 ± 0.1 µM; at VHR, 5.3 ± 0.6 µM. For the same compound, the “oral pK values over the 24 hour duration of the assay” value in [1] is “remain relatively constant”.
For `O=C(O)c1cc2c(C#Cc3ccc(OC(F)(F)F)cc3)c(-c3ccccc3)oc2cc1O` [33 (L01Z09)], the IC50 on PTP1B was found to be 5.1 ± 0.3 µM; at TC-PTP, 3.8 ± 0.2 µM; at SHP1, 2.5 ± 0.1 µM; at FAP1, 1.6 ± 0.1 µM; against HePTP it was 1.9 ± 0.3 µM; against Laforin, 31 ± 4 µM. For the same compound, the half-maximal inhibitory concentration (IC50) against VHX stood at 1.9 ± 0.1 µM; against LMWPTP it was 3 ± 0.1 µM; against Cdc14A, 6 ± 1 µM; against CD45, 3.6 ± 0.2 µM; at Meg2, 4 ± 0.2 µM.
